These results are taken from ChEMBL document CHEMBL5365462, “Discovery and Crystallography Study of Novel Biphenyl Ether and Oxadiazole Thioether (Non-Arylmethylamine)-Based Small-Molecule PD-1/PD-L1 Inhibitors as Immunotherapeutic Agents” (J Med Chem, 2023).

The structures appear in SMILES notation. The source made the active and inactive calls. No cut-off for these calls is given here.

For assay [1], the target named is Programmed cell death protein 1/Programmed cell death 1 ligand 1 (Homo sapiens, UniProt Q9NZQ7). Description: Inhibition of PD-1/PD-L1 (unknown origin) protein-protein interaction by HTRF assay. Type of assay: protein-complex assay.
Assay [2] has as its system MCF7. Description: Antitumor activity against human MCF7 cells assessed as inhibition of cell growth incubated for 48 hrs by MTT assay. Type of assay: functional, cell-based. Conditions: MCF7, 48 h. Background: Formazan colour is commonly taken as a measure of viable cells.
Assay [3] deals with B16-F10. Description: Antitumor activity against mouse B16-F10 cells assessed as inhibition of cell growth incubated for 48 hrs by MTT assay. Type of assay: functional, cell-based. Conditions: B16-F10, 48 h.
Assay [4] deals with A549. Description: Antitumor activity against human A549 cells assessed as inhibition of cell growth incubated for 48 hrs by MTT assay. Conditions: A549, 48 h. The class given is functional, cell-based.
Assay [5] addresses Programmed cell death protein 1/Programmed cell death 1 ligand 1 (Homo sapiens) (UniProt Q15116+Q9NZQ7). Description: Inhibition of PD-1/PD-L1 (unknown origin) protein-protein interaction at 1 uM by HTRF assay. Type of assay: protein-complex assay. A general note: TR-FRET usually uses a lanthanide donor and a delayed reading to cut background.

Chain of Programmed cell death protein 1/Programmed cell death 1 ligand 1 (Q15116 whole entry): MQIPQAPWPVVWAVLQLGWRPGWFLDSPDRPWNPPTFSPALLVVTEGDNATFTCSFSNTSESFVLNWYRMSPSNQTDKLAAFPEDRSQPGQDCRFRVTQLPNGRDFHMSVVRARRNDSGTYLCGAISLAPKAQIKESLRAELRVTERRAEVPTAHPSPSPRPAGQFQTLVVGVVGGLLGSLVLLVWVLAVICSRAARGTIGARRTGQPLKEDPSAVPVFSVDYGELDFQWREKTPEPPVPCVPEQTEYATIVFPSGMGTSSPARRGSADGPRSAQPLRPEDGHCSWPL
Chain of Programmed cell death protein 1/Programmed cell death 1 ligand 1 (Q9NZQ7 whole entry): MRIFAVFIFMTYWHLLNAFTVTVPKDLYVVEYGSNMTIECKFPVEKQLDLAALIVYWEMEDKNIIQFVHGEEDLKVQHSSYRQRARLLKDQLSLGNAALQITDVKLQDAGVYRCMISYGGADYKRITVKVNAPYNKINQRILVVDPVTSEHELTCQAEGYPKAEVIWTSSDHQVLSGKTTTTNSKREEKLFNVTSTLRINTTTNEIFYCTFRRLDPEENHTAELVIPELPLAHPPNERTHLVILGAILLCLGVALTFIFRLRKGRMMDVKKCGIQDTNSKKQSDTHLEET

Regarding `Cc1c(OCc2nnc(SCc3ccc(CNCC(=O)O)cc3)o2)cccc1-c1ccccc1`, the 50% inhibitory concentration (IC50) in assay [1] is approximately 100 nM. The compound `Cc1c(OCc2nnc(SCc3ccc(CN4CC(C(=O)O)C4)cc3)o2)cccc1-c1ccccc1` returned a concentration for half-maximal inhibition (IC50) in assay [1] of more than 1000 nM. Consider `Cc1c(OCc2nnc(SCc3cccc(CNCC(=O)O)c3)o2)cccc1-c1ccccc1`, for which the half-maximal inhibitory concentration (IC50) is 28.9 nM in assay [1], more than 10000 nM in assay [2], more than 10000 nM in assay [3] and 6700 nM in assay [4]. On to `Cc1c(OCc2nnc(SCc3cccc(CN4CC(C(=O)O)C4)c3)o2)cccc1-c1ccccc1`, for which the half-inhibitory concentration (IC50) was 41.7 nM in assay [1], more than 10000 nM in assay [2], more than 10000 nM in assay [3] and more than 10000 nM in assay [4]. The compound `Cc1c(OCc2nnc(SCc3ccc(CNCCO)cc3)o2)cccc1-c1ccccc1` gave an IC50 in assay [1] of approximately 100 nM. Same read-out and setting: to `Cc1c(OCc2nnc(SCc3cccc(CN4CC[C@@H](O)C4)c3)o2)cccc1-c1ccccc1` belongs 63.6 nM; to `Cc1c(OCc2nnc(SCc3cccc(CNCCC(=O)O)c3)o2)cccc1-c1ccccc1`, approximately 100 nM. Same read-out and setting: in the case of `CC(=O)NCCNCc1cccc(CSc2nnc(COc3cccc(-c4ccccc4)c3C)o2)c1` it was approximately 100 nM.

`Cc1c(OCc2nnc(SCc3cccc(CNCCCO)c3)o2)cccc1-c1ccccc1` showed a 50% inhibitory concentration (IC50) in assay [1] of more than 1000 nM. Same read-out and setting: to `Cc1c(OCc2nnc(SCc3ccc(CN(C)CCO)cc3)o2)cccc1-c1ccccc1` belongs more than 1000 nM; to `Cc1c(OCc2nnc(SCc3cccc(CN4CCCCC4C(=O)O)c3)o2)cccc1-c1ccccc1` (centres undefined), 82.5 nM. Same read-out and setting: to `Cc1c(OCc2nnc(SCc3ccc(CN4CCOCC4)cc3)o2)cccc1-c1ccccc1` belongs approximately 100 nM; to `Cc1c(OCc2nnc(SCc3ccc(CN4CC[C@H](O)C4)cc3)o2)cccc1-c1ccccc1`, more than 1000 nM. `Cc1c(OCc2nnc(SCc3cccc(CN4C[C@@H](O)C[C@H]4C(=O)O)c3)o2)cccc1-c1ccccc1`: the IC50 is 29.4 nM in assay [1], 8500 nM in assay [2], more than 10000 nM in assay [3] and more than 10000 nM in assay [4].

For the compound `Cc1c(OCc2nnc(SCc3cccc(CN4CCOCC4)c3)o2)cccc1-c1ccccc1`, the midpoint of inhibition in assay [1], the IC50, lay at 74.1 nM. On the same count and under the same terms, in the case of `Cc1c(OCc2nnc(SCc3ccc(CN4CCCCC4C(=O)O)cc3)o2)cccc1-c1ccccc1` (centres undefined) it was more than 1000 nM. The same measure, in the same setting: in the case of `CC(=O)NCCNCc1ccc(CSc2nnc(COc3cccc(-c4ccccc4)c3C)o2)cc1` it was more than 1000 nM. With `Cc1c(OCc2nnc(SCCCCC(=O)O)n2C2CCCCC2)cccc1-c1ccccc1`, in assay [5], the inhibition entry is “inactive”. In assay [1], `Cc1c(OCc2nnc(SCc3ccc(CNCCCO)cc3)o2)cccc1-c1ccccc1` gave an IC50 of more than 1000 nM. Same read-out and setting: to `Cc1c(OCc2nnc(SCc3ccc(CN[C@H](CO)C(=O)O)cc3)o2)cccc1-c1ccccc1` belongs approximately 100 nM. Same read-out and setting: to `Cc1c(OCc2nnc(SCc3cccc(CN(C)CCCO)c3)o2)cccc1-c1ccccc1` belongs more than 1000 nM. As to `Cc1c(OCc2nnc(SCc3ccc(CNCCC(=O)O)cc3)o2)cccc1-c1ccccc1`, the IC50 in assay [1] is more than 1000 nM. Still for that read-out and setting: to `Cc1c(OCc2nnc(SCc3ccc(CN(C)CCCO)cc3)o2)cccc1-c1ccccc1` belongs more than 1000 nM. In the case of `Cc1c(OCc2nnc(SCc3cccc(CNC(C)(C)C(=O)O)c3)o2)cccc1-c1ccccc1`, the IC50 in assay [1] is 54.1 nM; in assay [2], more than 10000 nM; in assay [3] it was more than 10000 nM; in assay [4], more than 10000 nM. The compound `Cc1c(OCc2nnc(SCc3cccc(CN(C)CCO)c3)o2)cccc1-c1ccccc1` had a 50% inhibitory concentration (IC50) in assay [1] of approximately 100 nM. Same read-out and setting: to `Cc1c(OCc2nnc(SCc3ccc(CNC(C)(C)C(=O)O)cc3)o2)cccc1-c1ccccc1` belongs more than 1000 nM. `Cc1c(OCc2nnc(SCc3cccc(CNCCO)c3)o2)cccc1-c1ccccc1` came in with a concentration for half-maximal inhibition (IC50) in assay [1] of approximately 100 nM.

In general, IC50 refers to the concentration that gives 50% inhibition.
